Measured values from patent publication US20140303123A1, “SYNTHESIZING FUNCTIONALIZED DENDRIMERS WITHIN BIOLOGICAL SETTINGS” (priority 2011, published 2014).

Experiments:
[1] = tested on: FRα over-expressing KB cells; test: Uptake of dendrimer conjugates in KB cells, in situ CuAAC detection with fluorescent azide, flow cytometry; format: cell-based; settings: increasing concentrations, 1 hour at 37° C., Alexa647-azide detection (FIG. 2A)
Procedure: KB cells were cultured in RPMI 1640 medium without folic acid for at least 4 days before experiments, resulting in the folic acid receptor overexpressing KB (FAR-KB) cell line. […] For the flow cytometry measurements, cells were seeded on a 12-well plate for tissue culture at a concentration of 23105 cells/well and grown in folic acid deficient RPMI 1640 media (Mediatech, Herndon, Va.) at 37° C., 5% CO2 for 24 hr. The cells were then incubated with the series of the prepared nanodevices at either 37° C. for 1 hr. After removal of supernatants, cells were trypsinized and collected into FACS tubes, followed by centrifugation at 1500 rpm for 5 min to obtain cell pellets. […] Fluorescence signal intensities from the samples were measured using a Coulter EPICS/XL MCL Beckman-Coulter flow cytometer, and data were analyzed using FloJo 8.2 software (TreeStar).
After 4% paraformaldehyde fixation and permeabilization with 10% saponin in PBS and BSA, cells were rinsed and then stained by incubating cells for 30 min with 100 mM Tris (pH 8.5), 1 mM CuSO4, 1-100 μM fluorescent azide (in DMSO), and 100 mM ascorbic acid (added last to the mix in 0.5 M stock in water). […] After staining, cells were washed with 10% saponin solution and assessed by flow cytometry.

[2] = tested on: CD11b+ macrophages (peritoneal macrophages, lymph nodes); test: In vivo trafficking of FA-targeted dendrimer nanoparticles in a murine model of inflammation (thioglycollate IP); settings: thioglycollate-stimulated mice, 35 mg/kg IP on day 3, cells isolated day 4 (FIG. 6); for uptake in peritoneal macrophages (PEM): 35 mg/kg
Procedure: Mice (n=2) were stimulated with thioglycollate IP. 3 days following thioglycollate, mice were administered 200 μl (35 mg/kg) folate functionalized dendrimer alkyne scaffolds. One day later (day 4), peritoneal macrophages (PEM), spleen, cervical lymph nodes, and mesenteric lymph nodes were isolated and processed into single-cell suspensions. Suspensions were stained with a CD11b monoclonal PE antibody and then fixed and permeabilized. Cell suspensions were then reacted with AlexaFluor 647-azide to detect dendrimer conjugates and analyzed by flow cytometry.
On day 1, mice (n=2) were treated IP with thioglycollate to stimulate folate receptor positive macrophage infiltration into the peritoneal cavity (see, e.g., Xia, W. et al. Blood 113, 438-446 (2005); herein incorporated by reference in its entirety). On day 3, mice were administered folate targeted dendrimers IP (35 mg/kg). On day 4, peritoneal macrophages (PEM) as well as the spleen, submandibular lymph nodes, and mesenteric lymph nodes were isolated and processed as using standard techniques. Single cell suspensions were made and analyzed by flow cytometry for co-expression of the macrophage marker CD11b and the FA-dendrimer scaffolds. […] Compared to the cervical lymph nodes (secondary lymph organs not draining the peritoneal cavity), there was a greater proportion of double-positive CD11b and FR cells in the mesenteric lymph nodes consistent with the trafficking of these activated macrophages.

folate receptor = settings: relative to folic acid; cited from earlier work
[3] = tested on: bone marrow derived macrophages (BMDM); settings: BMDMs differentiated with IL-4 and IL-10, 30 nM, 6 hours at 37° C. (FIG. 4)
Procedure: Bone marrow derived macrophages (BMDM) were obtained as previously described. Briefly, bone marrow precursors from female C57BL/6 mice were isolated and propagated for 7 days in RPMI 1640 supplemented with penicillin (100 units/ml), streptomycin (100 mg/ml), and 10% heat inactivated low endotoxin fetal bovine serum with L-conditioned media. Following propagation, BMDMs were polarized with murine recombinant proteins M-CSF (10 ng/ml), IL4 (50 ng/ml), IL10 (10 ng/ml), or GM-CSF (10 ng/ml) for 72 hours (Peprotech). For the flow cytometry measurements, cells were seeded on a 12-well plate for tissue culture at a concentration of 23105 cells/well and grown in folic acid deficient RPMI 1640 media (Mediatech, Herndon, Va.) at 37° C., 5% CO2 for 24 hr. […] Fluorescence signal intensities from the samples were measured using a Coulter EPICS/XL MCL Beckman-Coulter flow cytometer, and data were analyzed using FloJo 8.2 software (TreeStar).
After 4% paraformaldehyde fixation and permeabilization with 10% saponin in PBS and BSA, cells were rinsed and then stained by incubating cells for 30 min with 100 mM Tris (pH 8.5), 1 mM CuSO4, 1-100 μM fluorescent azide (in DMSO), and 100 mM ascorbic acid (added last to the mix in 0.5 M stock in water). […] After staining, cells were washed with 10% saponin solution and assessed by flow cytometry. […]

Compound: G5-NHAc80-Alkyne8-FA4-Gly [FA-dendrimer alkyne conjugates]
- cellular uptake [1]: dose-dependent cellular uptake
- uptake in CD11b+ cells in the mesenteric lymph nodes [2]: significant uptake
- uptake in peritoneal macrophages (PEM) ([2]; listed as FA-dendrimer nanoparticles): much higher uptake
- uptake in peritoneal macrophages (PEM) ([2]; listed as folate nanodevices): significant uptake

Compound: CN(Cc1cnc2nc(N)nc(N)c2n1)c1ccc(C(=O)N[C@@H](CCC(=O)O)C(=O)O)cc1 [methotrexate]
- affinity for the folate receptor in comparison to folic acid (lower) (folate receptor): 100 fold

Compound: G5-NHAc80-Alkyne12-Mannose15-Gly [mannose-targeted dendrimers]
- binding and uptake compared to non-targeted controls [3]: increased binding and uptake

Compound: G5-NHAc80-Alkyne12-Gly [non-targeted dendrimer conjugates]
- cellular uptake [1]: did not demonstrate any significant uptake
